Data taken from patent publication US20240366586A1, “METHODS AND AGENTS FOR MODULATING THE IMMUNE RESPONSE” (The Regents of the University of California, priority 2021, published 2024).
Counter-ions that a name gives are not always drawn.

test system: Il12b; assay: Dual-fluorescence reporter macrophage cell line screen, lipopolysaccharide-stimulated: chromatinized Il12b-eGFP versus minimal Il12b-DsRed reporter; format: cell-based; details: additional compounds of Formulas (I)-(IV), same screening procedure
Excerpt: We hypothesized that molecules that inhibit the “chromatinized” Il12b reporter but not the “minimal” Il12b reporter would offer a greater degree of Il12b inhibition selectivity.
We generated a dual-fluorescence reporter macrophage cell line having both a [Il12b]-[eGFP] chromatin-based construct and a [Il12b]-[DSred] plasmid vector. FIG. 3. We then stimulated an […] response in the cell line using lipopolysaccharide, an activator of Il12b expression, and tested a library of over 60,000 known and unknown (i.e., undescribed in the literature) small-molecule compounds.
Additional compounds in Formulas (I)-(IV) were screened following the same procedure as described above, with eGFP fluorescence as a readout for inhibition of IL12b.

**Q.** `CCOc1ccc2[nH]c(=O)c(CN(Cc3ccco3)C(=O)Nc3ccc(OC)cc3)cc2c1` [Compound I-5, 1-[(6-ethoxy-2-oxo-1H-quinolin-3-yl)methyl]-1-(furan-2-ylmethyl)-3-(4-methoxyphenyl)urea] was tested. Which “inhibition of IL12b, eGFP fluorescence as readout” value (shortened to “inhibition of IL12b”) did it give?
**A.** Its value is “Positive activity”.

**Q.** `CCOc1ccc(C(=O)/C=C/c2cccc(OC)c2OC)cc1` [IV-5, (E)-3-(2,3-dimethoxyphenyl)-1-(4-ethoxyphenyl)prop-2-en-1-one] was tested. Which “inhibition of IL12b” value did it give?
**A.** The value was “Positive activity”.

**Q.** With `O=C(NCc1ccccc1)N(Cc1ccco1)Cc1cc2cc3c(cc2[nH]c1=O)OCO3` [Compound I-8, 3-benzyl-1-(furan-2-ylmethyl)-1-[(6-oxo-5H-[1,3]dioxolo[4,5-g]quinolin-7-yl)methyl]urea] as the molecule, how does the “inhibition of IL12b” value read?
**A.** Its value is “Positive activity”.

**Q.** Which “inhibition of IL12b” value does the source give for `COc1cc(OC)cc(C(=O)N(Cc2ccc(F)cc2)Cc2cc3c(C)ccc(C)c3[nH]c2=O)c1` [Compound I-2, N-[(5,8-dimethyl-2-oxo-1H-quinolin-3-yl)methyl]-N-[(4-fluorophenyl)methyl]-3,5-dimethoxybenzamide] here?
**A.** Its value is “Positive activity”.

**Q.** With `O=c1cccc2n1C[C@H]1C[C@@H]2CN(Cc2ccc3ccc4cccc5ccc2c3c45)C1` [III-2, (1R,9S)-11-(pyren-1-ylmethyl)-7,11-diazatricyclo[7.3.1.0^2,7]trideca-2,4-dien-6-one] as the molecule, how does the “inhibition of IL12b” value read?
**A.** Its value is “Positive activity”.

**Q.** With `Cc1ccc(NC(=O)N(Cc2ccco2)Cc2cc3cc4c(cc3[nH]c2=O)OCO4)cc1` [Compound I-7, 1-(furan-2-ylmethyl)-3-(4-methylphenyl)-1-[(6-oxo-5H-[1,3]dioxolo[4,5-g]quinolin-7-yl)methyl]urea] as the molecule, how does the “inhibition of IL12b” value read?
**A.** The value was “Positive activity”.

**Q.** With `C/C(=N\NC(=O)c1cccc(Cl)c1)c1ccc([N+](=O)[O-])o1` [II-4, 3-chloro-N-[(E)-1-(5-nitrofuran-2-yl)ethylideneamino]benzamide] as the molecule, how does the “inhibition of IL12b” value read?
**A.** Its value is “Positive activity”.

**Q.** With `COc1ccc(C(=O)/C=C/c2cccc(Cl)c2)cc1OC` [IV-4, (E)-3-(3-chlorophenyl)-1-(3,4-dimethoxyphenyl)prop-2-en-1-one] as the molecule, how does the “inhibition of IL12b” value read?
**A.** The value was “Positive activity”.

**Q.** How did the “inhibition of IL12b” value turn out when `Cc1ccc(NC(=O)N(Cc2ccco2)Cc2cc3cc4c(cc3[nH]c2=O)OCCO4)cc1` [Compound I-4, 1-(furan-2-ylmethyl)-3-(4-methylphenyl)-1-[(7-oxo-3,6-dihydro-2H-[1,4]dioxino[2,3-g]quinolin-8-yl)methyl]urea] was run?
**A.** The value was “Positive activity”.

**Q.** For `COc1ccc(OC)c(/C=C/C(=O)c2ccc(C)cc2)c1` [IV-3, (E)-3-(2,5-dimethoxyphenyl)-1-(4-methylphenyl)prop-2-en-1-one], which “inhibition of IL12b” value is on record?
**A.** Its value is “Positive activity”.

same assay, conditions: lipopolysaccharide-stimulated dual-fluorescence reporter macrophage cell line

**Q.** With `C/C(=C\c1cccc2ccccc12)[N+](=O)[O-]` [1-(2-nitro-1-propen-1-yl)naphthalene] as the molecule, how does the “selective inhibition of the chromatinized Il12b reporter (eGFP) but not the minimal reporter (DsRed)” value read?
**A.** The value was “selective inhibitors of chromatinized Il12b”.

**Q.** With `CC(=O)Nc1ccc(Br)cc1-c1ccccc1` [N-(5-bromo-2-biphenylyl)acetamide] as the molecule, how does the “selective inhibition of the chromatinized Il12b reporter (eGFP) but not the minimal reporter (DsRed)” value read?
**A.** Its value is “selective inhibitors of chromatinized Il12b”.

**Q.** With `NC(=O)c1ccccc1/N=C/c1ccc([N+](=O)[O-])s1` [2-{[(5-nitro-2-thienyl)methylene]amino}benzamide] as the molecule, how does the “selective inhibition of the chromatinized Il12b reporter (eGFP) but not the minimal reporter (DsRed)” value read?
**A.** Its value is “selective inhibitors of chromatinized Il12b”.

**Q.** For `CCOc1ccc(/C=C/[N+](=O)[O-])cc1` [1-ethoxy-4-(2-nitrovinyl)benzene], which “selective inhibition of the chromatinized Il12b reporter (eGFP) but not the minimal reporter (DsRed)” value is on record?
**A.** The value was “selective inhibitors of chromatinized Il12b”.

**Q.** For `CC[n+]1c2ccccc2nc2ccccc21` [5-ethylphenazin-5-ium ethyl sulfate], which “selective inhibition of the chromatinized Il12b reporter (eGFP) but not the minimal reporter (DsRed)” value is on record?
**A.** Its value is “selective inhibitors of chromatinized Il12b”.

**Q.** How did the “selective inhibition of the chromatinized Il12b reporter (eGFP) but not the minimal reporter (DsRed)” value turn out when `O=c1cc(C(Cl)(Cl)Cl)oc2ccc(Cl)cc12` [6-chloro-2-(trichloromethyl)-4H-chromen-4-one] was run?
**A.** Its value is “selective inhibitors of chromatinized Il12b”.
